Measured values published in patent publication US20110293676A1, “Oral Cephalotaxine Dosage Forms” (ChemGenex Pharmaceuticals, Inc., priority 2007, published 2011).

Tests used:
[1] = Observation for mortality, morbidity and adverse events in the mouse pharmacokinetic study; assay type: in vivo, male CD-1 mice; settings: single dose 0.41 or 1.6 mg/kg p.o. or s.c., observed until 7 days after last blood collection
Description: Animals were observed twice daily (in the morning and in the evening) for mortality and morbidity beginning at the time of arrival from the vendor until the scheduled sacrifice 7 days after the last blood collection. Prior to dosing, each animal was removed from its cage and observed for signs of poor health and abnormal behavior. All animals were weighed prior to dosing.
No unscheduled sacrifices or deaths were recorded. Animals were sacrificed via CO2 7 days after the completion of blood draws.

[2] = Pharmacokinetic study of homoharringtonine in mice, oral vs subcutaneous, plasma HHT content; assay type: in vivo, male CD-1 mice; design: Tmax / t-½: unit not given here; settings: for Concentration of HHT in mouse sodium heparin plasma: single dose; for BA po/sc % / Cmax / Tmax / AUC / t-½: mouse; for AUC / t-½: WINNONLIN NCA model
Description: To evaluate the potential for the development of an oral formulation of homoharringtonine, a pharmacokinetic study was performed in mice. Homoharringtonine was given, at 2 doses, by either oral or subcutaneous routes to male CD-1 mice. After a single administration, blood was collected from the tail vein and analyzed for homoharringtonine content. The animal dosing was performed by Murigenics (Berkeley, Calif.) and the analysis of sera was performed by PHARMout (Sunnyvale, Calif.). […] This bioavailability is considered very good.
Homoharringtonine was manufactured by Stragen for ChemGenex Pharmaceuticals. 5 mg of lyophilized homoharringtonine was provided in a glass vial and was stable at room temperature. The vehicle was 0.9% sodium chloride supplied with the test agent in a separate vial. 27 male CD-1 mice, 8-10 weeks old (Charles River Laboratories) were used for this study. 24 mice were used for dosing, and 3 mice were used as naïve controls.
On the day of the study, 5 ml of saline were added to the 5 mg vial to make a stock of 1 mg/ml HHT. The amount administered for each mouse was based on weight, using a dose volume of 4 ml/kg. The dosing administration was performed according to Table 1.
Test subjects were dosed once. The enzyme blocker was provided in two separate tubes (A & B) Immediately prior to blood collection, 20 μL each of A and B were aliquoted into a small tube (to yield 40 μL of enzyme inhibitor).
Blood from 3 naïve mice was collected for a 0 timepoint. Approximately 50 μL of whole blood per animal (n=3 mice per time point) was collected into heparinized capillary tubes. Heparanized blood was transferred into tubes containing 40 μL of enzyme inhibitor. Samples were clearly marked by PK timepoint and group. Blood was stored on ice until centrifugation. There were 6 mice treated at each dose, but blood was pooled from 3 mice per time point so that each mouse had blood collected at every other timepoint. There were the following timepoints: 0, 15 min, 30 min, 2 hr, 4 hr and 8 hr after the administration of homoharringtonine. There were three samples collected for the T=0 from naïve mice. There were 5 samples collected for each dose, corresponding to the timepoints, 15 min, 30 min, 2 hr, 4 hr and 8 hr after the administration of homoharrigntonine. There were 2 doses for each route, and 2 routes of administration, so there were a total of 20 samples collected from treated mice. Plasma tubes were spun to prepare plasma, frozen to −80° C. and shipped on dry ice to PHARMout for bioanalytical work up.
The Cmax of the oral doses was 4 and 30 ng/mL for the 410 and 1600 μg/kg oral doses, respectively.

Structure (SMILES): COC(=O)C[C@](O)(CCCC(C)(C)O)C(=O)O[C@@H]1C(OC)=C[C@]23CCCN2CCc2cc4c(cc2[C@H]13)OCO4 [HHT, cephalotaxine, 4-methyl-2-hydroxy-2-(4-hydroxy-4-methylpentyl) butanediocate ester]
- mortality and morbidity [1]: No mortalities or signs of morbidity were observed
- Concentration of HHT in mouse sodium heparin plasma ([2]; Group 1: 0.41 mg/kg p.o., 15 min): 3.54 ng/mL
- Concentration of HHT in mouse sodium heparin plasma ([2]; Group 1: 0.41 mg/kg p.o., 30 min): 3.59 ng/mL
- Concentration of HHT in mouse sodium heparin plasma ([2]; Group 1: 0.41 mg/kg p.o., 60 min): 3.85 ng/mL
- Concentration of HHT in mouse sodium heparin plasma ([2]; Group 1: 0.41 mg/kg p.o., 120 min): 4.29 ng/mL
- Concentration of HHT in mouse sodium heparin plasma ([2]; Group 1: 0.41 mg/kg p.o., 240 min): 1.81 ng/mL
- Concentration of HHT in mouse sodium heparin plasma ([2]; Group 1: 0.41 mg/kg p.o., 480 min): 1.65 ng/mL
- Concentration of HHT in mouse sodium heparin plasma ([2]; Group 2: 0.41 mg/kg s.c., 15 min): 20.4 ng/mL
- Concentration of HHT in mouse sodium heparin plasma ([2]; Group 2: 0.41 mg/kg s.c., 30 min): 11.2 ng/mL
- Concentration of HHT in mouse sodium heparin plasma ([2]; Group 2: 0.41 mg/kg s.c., 60 min): 6.20 ng/mL
- Concentration of HHT in mouse sodium heparin plasma ([2]; Group 2: 0.41 mg/kg s.c., 120 min): 3.59 ng/mL
- Concentration of HHT in mouse sodium heparin plasma ([2]; Group 2: 0.41 mg/kg s.c., 240 min): 2.44 ng/mL
- Concentration of HHT in mouse sodium heparin plasma ([2]; Group 2: 0.41 mg/kg s.c., 480 min): BQL (Below the quantification limit (1.00 ng/mL))
- Concentration of HHT in mouse sodium heparin plasma ([2]; Group 3: 1.6 mg/kg p.o., 15 min): 6.58 ng/mL
- Concentration of HHT in mouse sodium heparin plasma ([2]; Group 3: 1.6 mg/kg p.o., 30 min): 8.87 ng/mL
- Concentration of HHT in mouse sodium heparin plasma ([2]; Group 3: 1.6 mg/kg p.o., 60 min): 29.9 ng/mL
- Concentration of HHT in mouse sodium heparin plasma ([2]; Group 3: 1.6 mg/kg p.o., 120 min): 9.18 ng/mL
- Concentration of HHT in mouse sodium heparin plasma ([2]; Group 3: 1.6 mg/kg p.o., 240 min): 5.52 ng/mL
- Concentration of HHT in mouse sodium heparin plasma ([2]; Group 3: 1.6 mg/kg p.o., 480 min): 4.19 ng/mL
- Concentration of HHT in mouse sodium heparin plasma ([2]; Group 4: 1.6 mg/kg s.c., 15 min): 54.4 ng/mL
- Concentration of HHT in mouse sodium heparin plasma ([2]; Group 4: 1.6 mg/kg s.c., 30 min): 15.4 ng/mL
- Concentration of HHT in mouse sodium heparin plasma ([2]; Group 4: 1.6 mg/kg s.c., 60 min): 35.3 ng/mL
- Concentration of HHT in mouse sodium heparin plasma ([2]; Group 4: 1.6 mg/kg s.c., 120 min): 6.38 ng/mL
- Concentration of HHT in mouse sodium heparin plasma ([2]; Group 4: 1.6 mg/kg s.c., 240 min): 7.72 ng/mL
- Concentration of HHT in mouse sodium heparin plasma ([2]; Group 4: 1.6 mg/kg s.c., 480 min): 3.10 ng/mL
- BA po/sc % ([2]; 410 ug/kg, oral compared with subcutaneous dosing): 76%
- BA po/sc % ([2]; 1600 ug/kg, oral based on the subcutaneous dose): 77%
- Cmax ([2]; po, 410 ug/kg (1.2 mg/m2)): 4 ng/mL
- Tmax ([2]; po, 410 ug/kg (1.2 mg/m2)): 120
- AUC ([2]; po, 410 ug/kg (1.2 mg/m2)): 1217 ng·min/mL
- t-½ ([2]; po, 410 ug/kg (1.2 mg/m2)): 297
- Cmax ([2]; po, 1600 ug/kg (4.8 mg/m2)): 30 ng/mL
- Tmax ([2]; po, 1600 ug/kg (4.8 mg/m2)): 60
- AUC ([2]; po, 1600 ug/kg (4.8 mg/m2)): 3966 ng·min/mL
- t-½ ([2]; po, 1600 ug/kg (4.8 mg/m2)): 341
- Cmax ([2]; sc, 410 ug/kg (1.2 mg/m2)): 20 ng/mL
- Tmax ([2]; sc, 410 ug/kg (1.2 mg/m2)): 15
- AUC ([2]; sc, 410 ug/kg (1.2 mg/m2)): 1599 ng·min/mL
- t-½ ([2]; sc, 410 ug/kg (1.2 mg/m2)): 215
- Cmax ([2]; sc, 1600 ug/kg (4.8 mg/m2)): 54 ng/mL
- Tmax ([2]; sc, 1600 ug/kg (4.8 mg/m2)): 15
- AUC ([2]; sc, 1600 ug/kg (4.8 mg/m2)): 5087 ng·min/mL
- t-½ ([2]; sc, 1600 ug/kg (4.8 mg/m2)): 306
